This note sets out measurements from patent US6387889B1, “Medicinal compositions for treating eye diseases” (Yamasa Corporation, priority 1998, dated 2002).

Data set [1] deals with rabbit of normal ocular tension. The data set can be described thus: Test Example 2: effect of lowering ocular tension after instillation of test compound to rabbit of normal ocular tension. The data set is classed as in vivo, Japanese white male rabbits. As to conditions: 0.1% (W/V), 50 μL instilled; for AUC: area under curve of time vs difference in ocular tension between treated eye and eye drop base eye, up to 480 minutes; for Emax: maximum difference in ocular tension between treated eye and eye drop base eye. On the procedure: Compounds shown in Table 1 were used as test compounds. Each compound was dissolved in saline containing polysorbate 80 (hereinafter the saline will be referred to as “eye drop base A”) or in an aqueous solution of boric acid buffer (pH 7.0) containing polysorbate 80 (hereinafter the solution will be referred to as “eye drop base B”) (polysorbate 80 content of each base: 5 mg/mL), to thereby obtain a test solution. The amount of each compound in the resultant solution was 0.1% (W/V). The eye drop bases were employed as a control.
Japanese white male rabbits (Kitayama Labes Co., Ltd.) (weight: 2.1-3.2 kg) were employed in the test. The rabbits were retained in a box-type fixation apparatus and employed in the test.
The ocular tension of each rabbit was measured by use of Model 30 Classic Pneumatonometer (product of Mentor) without anesthesia. Before the ocular tension was measured, 0.4% oxybuprocaine hydrochloride (Benoxil 0.4% eye drop solution, product of Santen Pharmaceutical Co., Ltd.) was instilled to the eyes of each rabbit, to thereby anesthetize the surface of the cornea. The ocular tension of each rabbit was measured several times at regular intervals. After the ocular tension became stable, the ocular tension was measured three times, and the average value was employed as the ocular tension.
A 0.1% solution of each test compound (50 μL) was instilled to one eye of each of the respective rabbits, and simultaneously the eye drop base (50 μL) was instilled to the remaining eye. The ocular tensions of both eyes were measured 60 minutes before instillation of the test compound; 0 minute immediately before instillation; and 30, 60, 90, 120, 150, 180, 240, 300, 360, 420, and 480 minutes after instillation. Two to six rabbits were employed for each test compound. For control, the eye drop base was instilled to both eyes of each respective rabbit, and the ocular tension was measured in a manner similar to that described above.
For each test compound, the effect of lowering ocular tension was evaluated on the basis of the following values: the area under the curve of time versus change in difference between the ocular tension of the eye to which the test compound was instilled and that of the eye to which the eye drop base was instilled (hereinafter the area will be abbreviated as AUC (mmHg·min)); and the maximum value of difference between the ocular tension of the eye to which the test compound was instilled and that of the eye to which the eye drop base was instilled (hereinafter the value will be abbreviated as Emax (mmHg)).

The nature of data set [2]: Test Example 3: single oral dose toxicity in dogs. As to conditions: both sexes, beagle, in vivo, dog, observed for two weeks, maximum dose. On the procedure:
To nine-month-old male and female beagle dogs (two for each group), 2-(1-octynyl)adenosine was administered orally at a single dose of 50, 150, or 450 mg/kg.

In data set [3] the test system is ocular tension in rabbits. The data set is described as follows: Test Example 1: ocular tension after instillation to rabbits (FIGS. 1 and 2). In kind it is in vivo, New Zealand white male rabbits. As to conditions: 0.03% and 0.1% (W/V) in 15% aqueous dimethyl sulfoxide, 50 μL instilled once; 15-180 minutes after instillation; CGS-21680 0.1% (w/v). On the procedure: 2-(1-Octynyl)adenosine, 2-(3-hydroxy-1-propynyl)adenosine, and CGS-21680 [2-((4-(2-carboxyethyl)phenylethyl)amino)adenosine-5′-N-ethyluronamide] were used as test compounds. Each compound was dissolved in a 15% aqueous solution of dimethyl sulfoxide (hereinafter the solution will be referred to as an “eye drop base”), to thereby obtain a test solution. The amounts of 2-(1-octynyl)adenosine and 2-(3-hydroxy-1-propynyl)adenosine were 0.03% (W/V) and 0.1% (W/V), respectively. The amount of CGS-21680 in the resultant solution was 0.1% (w/v). The eye drop base was employed as a control.
New Zealand white male rabbits (Tokyo Jikken Dobutsu) (weight: 2.2-3.1 kg) were employed in the test. […]
The ocular tension of each rabbit was measured by use of an applanation pneumatonometer (Alcon, PTG) without anesthesia. Before the ocular tension was measured, 0.4% oxybuprocaine hydrochloride (Benoxil 0.4% eye drop, product of Santen Pharmaceutical Co., Ltd.) was instilled to the eyes of each rabbit, to thereby anesthetize the surface of the cornea. Before administration of drugs, the ocular tension of each rabbit was measured several times at 15-minute intervals until the ocular tension became stable. After the ocular tension became stable, the ocular tension was measured three times, and the average value was employed as the normal ocular tension. […]

Data set [4] in a line: Test Example 3: single oral dose toxicity in rats. As to conditions: both sexes, SD, in vivo, rat, observed for two weeks, maximum dose. On the procedure: To six-week-old male and female SD rats (six for each group), 2-(1-octynyl)adenosine was administered orally at a single dose of 521, 729, 1020, 1429, or 2000 mg/kg.
Setting [5] is: eye drop base A (saline with polysorbate 80).
Where [6] appears, read: eye drop base B (boric acid buffer pH 7.0 with polysorbate 80).

In data set [1] (setting [5]), `CCNC(=O)[C@H]1O[C@@H](n2cnc3c(N)nc(NCCc4ccc(CCC(=O)O)cc4)nc32)[C@H](O)[C@@H]1O` [CGS-21680, 2-((4-(2-carboxyethyl)phenylethyl)amino)adenosine-5′-N-ethyluronamide, reference compound] displayed an AUC of −508.1 mmHg.min and an Emax of −2.5 mmHg.
In data set [1] (setting [6]), `CCCCC#Cc1nc(N)c2ncn([C@@H]3O[C@H](CO)[C@@H](O)[C@H]3O)c2n1` [Compound 1, 2-(1-hexynyl)adenosine] had an AUC of −1236.0 mmHg.min and an Emax of −4.6 mmHg.
`CCCCCCC#Cc1nc(N)c2ncn([C@@H]3O[C@H](CO)[C@@H](O)[C@H]3O)c2n1` [Compound 2, 2-(1-octynyl)adenosine]: the LD50 at 2 weeks in data set [2] is at least 450 mg/kg. For the same compound, the “effect of lowering ocular tension (ΔIOP)” value in data set [3] is “excellent effect of lowering ocular tension, as compared with CGS-21680”. In data set [1] (setting [5]), this compound gave an AUC of −1093.5 mmHg.min and an Emax of −4.2 mmHg. Besides, in data set [4], the LD50 at 2 weeks was at least 2000 mg/kg.
In data set [1] (setting [5]), `Nc1nc(C#CCCCCN2C(=O)c3ccccc3C2=O)nc2c1ncn2[C@@H]1O[C@H](CO)[C@@H](O)[C@H]1O` [Compound 3, 2-(6-phthalimidyl-1-hexynyl)adenosine] displayed an AUC of −1471.0 mmHg.min and an Emax of −6.3 mmHg.
With `Nc1nc(C#CCO)nc2c1ncn2[C@@H]1O[C@H](CO)[C@@H](O)[C@H]1O` [Compound 4, 2-(3-hydroxy-1-propynyl)adenosine], in data set [3], the “effect of lowering ocular tension (ΔIOP)” value was “excellent effect of lowering ocular tension, as compared with CGS-21680”. In data set [1] (setting [5]), this compound registered an AUC of −955.6 mmHg.min and an Emax of −4.3 mmHg.
Regarding `Nc1nc(C#CC(O)c2ccccc2)nc2c1ncn2[C@@H]1O[C@H](CO)[C@@H](O)[C@H]1O` (stereo partly drawn) [Compound 5, 2-(3-hydroxy-3-phenyl-1-propynyl)adenosine], in data set [1] (setting [5]), the AUC is listed as −1185.6 mmHg.min and the Emax is listed as −4.8 mmHg.
With `CCOCC#Cc1nc(N)c2ncn([C@@H]3O[C@H](CO)[C@@H](O)[C@H]3O)c2n1` [Compound 6, 2-(3-ethoxy-1-propynyl)adenosine], the melting point is 120 to 127 °C. For the same compound, in data set [1] (setting [5]), the AUC is on record as −1538.3 mmHg.min and the Emax was −5.3 mmHg.
In data set [1] (setting [6]), `CCCOCCC#Cc1nc(N)c2ncn([C@@H]3O[C@H](CO)[C@@H](O)[C@H]3O)c2n1` [Compound 7, 2-(4-propoxy-1-butynyl)adenosine] came in with an AUC of −1828.5 mmHg.min and an Emax of −4.9 mmHg.
In the same order, the values of `CCCCCCCCOCCC#Cc1nc(N)c2ncn([C@@H]3O[C@H](CO)[C@@H](O)[C@H]3O)c2n1` [Compound 8, 2-(4-octoxy-1-butynyl)adenosine] are −1683.0 mmHg.min and −5.4 mmHg.
In the same order, the values of `CCOCCCC#Cc1nc(N)c2ncn([C@@H]3O[C@H](CO)[C@@H](O)[C@H]3O)c2n1` [Compound 9, 2-(5-ethoxy-1-pentynyl)adenosine] are −1117.5 mmHg.min and −3.7 mmHg.
With `Nc1nc(C#CCOC2CCCCC2)nc2c1ncn2[C@@H]1O[C@H](CO)[C@@H](O)[C@H]1O` [Compound 10, 2-(3-cyclohexyloxy-1-propynyl)adenosine], in data set [1] (setting [5]), the AUC is recorded as −945.9 mmHg.min and the Emax is given as −4.3 mmHg.
Take `Nc1nc(C#CC2CCCC2)nc2c1ncn2[C@@H]1O[C@H](CO)[C@@H](O)[C@H]1O` [Compound 11, 2-(2-cyclopentyl-1-ethynyl)adenosine]: in data set [1] (setting [6]), the AUC is given as −1532.7 mmHg.min and the Emax was −4.4 mmHg.
In the same order, the values of `Nc1nc(C#CC2CCCCC2)nc2c1ncn2[C@@H]1O[C@H](CO)[C@@H](O)[C@H]1O` [Compound 12, 2-(2-cyclohexyl-1-ethynyl)adenosine] are −1670.2 mmHg.min and −6.0 mmHg.
The matching figures for `Nc1nc(C#CCC2CCCC2)nc2c1ncn2[C@@H]1O[C@H](CO)[C@@H](O)[C@H]1O` [Compound 13, 2-(3-cyclopentyl-1-propynyl)adenosine]: −1053.9 mmHg.min and −5.9 mmHg.
In the same order, the values of `Nc1nc(C#CCC2CCCCC2)nc2c1ncn2[C@@H]1O[C@H](CO)[C@@H](O)[C@H]1O` [Compound 14, 2-(3-cyclohexyl-1-propynyl)adenosine] are −1053.2 mmHg.min and −4.0 mmHg.
In data set [1] (setting [6]), `Nc1nc(C#CCCC2CCCC2)nc2c1ncn2[C@@H]1O[C@H](CO)[C@@H](O)[C@H]1O` [Compound 15, 2-(4-cyclopentyl-1-butynyl)adenosine] yielded an AUC of −1086.0 mmHg.min and an Emax of −5.6 mmHg.
In data set [1] (setting [5]), `CCCCC#Cc1nc(N)c2ncn([C@@H]3O[C@H](C(=O)NC)[C@@H](O)[C@H]3O)c2n1` [Compound 16, 2-(1-hexynyl)adenosine-4′-methylcarboxamide] gave an AUC of −1838.3 mmHg.min and an Emax of −6.0 mmHg.
